Results taken from patent publication US10653676B2 (Dana-Farber Cancer Institute, Inc., priority 2010, dated 2020).

Assays:
USP1 = target: T1, USP1 (Homo sapiens, UniProt O94782); test: Ub-vinyl sulfone conjugation of USP1 in lysates of compound-treated HeLa cells; type: cell-based
T1 construct: endogenous in cells; host or cells: HeLa
Experimental: In one set of experiments, HeLa cells were incubated in the presence of 50 μM of selected inhibitors including the compound of Formula III (933) and the compound of Formula IV (527) for 2, 4, or 6 hours, followed by cell lysis. […] Lysates were incubated with the Ub-vinyl sulfone (Ub-Vs) reagent for 40 minutes. Proteins were electrophoresed on SDS-PAGE, transferred to nitrocellulose, and immunoblotted with the anti-USP1 antibody.
HeLa cells were incubated with the compound of Formula IV (527) for eight hours, followed by cell lysis and incubation of protein extract with Ub-vinyl sulfone.

USP12/UAF1/WDR20 complex = target: T2, USP12/UAF1/WDR20 complex (Homo sapiens, UniProt O75317); test: ubiquitin-AMC assay with USP12/UAF1/WDR20; type: biochemical
T2 construct: made in house; host or cells: Sf9
T2 sequence (O75317 whole entry, species assumed): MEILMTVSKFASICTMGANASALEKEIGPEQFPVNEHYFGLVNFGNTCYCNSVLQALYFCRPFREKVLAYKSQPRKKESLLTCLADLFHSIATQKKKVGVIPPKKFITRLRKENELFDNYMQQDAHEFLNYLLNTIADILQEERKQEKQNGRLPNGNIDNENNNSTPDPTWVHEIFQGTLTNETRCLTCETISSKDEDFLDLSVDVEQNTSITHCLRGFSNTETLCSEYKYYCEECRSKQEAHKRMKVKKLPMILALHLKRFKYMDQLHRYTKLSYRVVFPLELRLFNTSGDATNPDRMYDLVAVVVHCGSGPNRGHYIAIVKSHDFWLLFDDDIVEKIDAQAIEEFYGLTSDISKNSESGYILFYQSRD
T2 sequence (Q8TAF3 whole entry partner, species assumed): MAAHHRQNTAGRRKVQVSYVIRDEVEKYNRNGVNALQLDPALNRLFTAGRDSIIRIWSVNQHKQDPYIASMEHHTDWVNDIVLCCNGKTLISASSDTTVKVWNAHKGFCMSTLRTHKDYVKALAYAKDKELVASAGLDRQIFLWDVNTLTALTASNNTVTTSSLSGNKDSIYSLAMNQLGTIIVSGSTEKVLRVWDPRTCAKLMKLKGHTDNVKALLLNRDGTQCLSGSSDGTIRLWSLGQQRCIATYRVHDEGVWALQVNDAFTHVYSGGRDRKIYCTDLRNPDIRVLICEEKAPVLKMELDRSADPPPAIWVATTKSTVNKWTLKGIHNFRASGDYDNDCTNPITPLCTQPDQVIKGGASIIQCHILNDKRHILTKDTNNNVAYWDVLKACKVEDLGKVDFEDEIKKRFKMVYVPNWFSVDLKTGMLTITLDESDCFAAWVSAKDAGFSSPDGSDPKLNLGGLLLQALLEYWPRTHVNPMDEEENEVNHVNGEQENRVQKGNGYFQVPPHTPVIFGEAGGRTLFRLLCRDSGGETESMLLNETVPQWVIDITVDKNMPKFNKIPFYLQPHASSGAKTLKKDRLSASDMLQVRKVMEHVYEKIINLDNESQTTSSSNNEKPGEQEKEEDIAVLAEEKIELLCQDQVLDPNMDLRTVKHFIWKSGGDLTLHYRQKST
T2 sequence (Q8TBZ3 whole entry partner, species assumed): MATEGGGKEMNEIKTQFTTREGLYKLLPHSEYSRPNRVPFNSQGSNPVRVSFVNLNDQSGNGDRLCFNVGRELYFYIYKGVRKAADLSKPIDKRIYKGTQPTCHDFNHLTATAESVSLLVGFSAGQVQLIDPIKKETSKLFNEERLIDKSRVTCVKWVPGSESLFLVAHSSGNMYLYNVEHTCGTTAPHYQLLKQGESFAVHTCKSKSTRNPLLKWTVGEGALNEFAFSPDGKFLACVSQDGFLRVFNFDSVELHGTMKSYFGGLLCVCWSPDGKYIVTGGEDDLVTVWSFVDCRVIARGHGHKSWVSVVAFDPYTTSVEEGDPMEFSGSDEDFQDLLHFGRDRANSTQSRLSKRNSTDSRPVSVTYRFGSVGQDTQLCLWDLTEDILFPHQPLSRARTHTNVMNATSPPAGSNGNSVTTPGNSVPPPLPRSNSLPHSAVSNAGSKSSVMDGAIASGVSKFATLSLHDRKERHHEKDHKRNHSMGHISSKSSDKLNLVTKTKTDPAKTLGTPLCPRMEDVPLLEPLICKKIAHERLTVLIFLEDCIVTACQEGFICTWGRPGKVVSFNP
Experimental: FIG. 6 is a composite figure showing that C527 is a pan-deubiqutinating enzyme inhibitor […]. Ubiquitin-AMC assay was performed using purified (FIG. 6A) USP12/UAF1/WDR20 (FIG. 6B) USP5 and (FIG. 6C) UCH-L1. Enzymes were incubated with DMSO or C527 at indicated concentrations for 3 h, followed by the addition of Ub-AMC at 0.5 μM final concentration. The fluorescence at […] was measured to indicate the enzymatic activity. FIG. 6D is a summary showing the IC50 of C527 against the indicated enzymes.
The in vitro enzymatic assays were performed using purified proteins from Sf9 cells as described previously (Cohn et al.). The assays using ubiquitin-AMC (Ub-7-amido-4-methylcoumarin; Boston Biochem) as substrate was carried out in a reaction buffer containing 20 mM HEPES-KOH (pH 7.8), 20 mM NaCl, 0.1 mg/ml ovalbumin, 0.5 mM EDTA and 10 mM dithiothreitol. The fluorescence was measured by FluoStar Galaxy Fluorometer (BMG Labtech). For the Ub-vinylsulfone (VS) assay, the proteins were incubated with Ub-VS at 0.5 μM final concentration for 1 h at 30° C., followed by the immunoblotting analysis.
To examine the specificity of C527 in USP1/UAF1 inhibition, its ability to inhibit other DUB enzymes in vitro was examined. […] Moreover, the active complex of USP12 contains an additional WD40 subunit (WDR20). […]

[1] = tested on: endogenous DUB enzyme complexes; test: HA-Ub-VS labelling of other endogenous DUBs in HeLa cell extracts; type: biochemical, human; details: HeLa cell extracts pretreated 4 h (Ub-Ald 5 μM), then Ub-VS 40 min at 30° C.; FIG. 7
Experimental: FIG. 7 is a composite figure depicting preferential inhibition of the activity of native USP1/UAF1 by C527. HeLa cell extracts were incubated with ubiquitin-aldehyde (Ub-Ald, 5 μM) or C527 at indicated concentrations for 4 h, followed by the addition of 0.5 μM Ub-Vs for 40 min. The reaction was split into two aliquots and subjected to immunoblotting for HA or USP1, respectively.
The ability of C527 to inhibit the deubiquitinating activity of native USP1 complexes derived from human cells was determined next (FIG. 7). For this purpose, the HA-tagged ubiquitin-VS, an affinity reagent known to covalently modify and trap active DUB enzymes in cell extracts was used. Cell extracts prepared from HeLa cells were pretreated with increasing concentrations of C527 for 4 h, followed by the incubation with Ub-VS for 40 min at 30° C. The enzymatic activity of endogenous DUBs was indicated by the conjugation of Ub-VS, detected as HA-labeling (see FIG. 7, high molecular weight bands). […] Ub-VS conjugation was inhibited by ubiquitin-aldehyde (Ub-Ald), a non-specific inhibitor of DUBs (lane 3).

HeLa cells = test: sensitization to DNA damaging agents, MTT assay; type: cell-based, human; details: 1 μM C527 for 24 h, FIG. 10
Experimental: FIG. 10 is a composite figure showing that C527 sensitizes tumor cells to DNA damaging agents. HeLa cells were plated in 96-well plates and treated with 1 μM C527 for 24 h, followed by treatment with mitomycin C (MMC, 0.25 μM), camptothcin (CPT, 0.1 μM), or etoposide for 4 more days. Cell viability was assessed using the MTT assay.
HeLa cells were seeded in 96-well plate and treated with C527 for 4 more days. 20 μL MTT (Sigma) at 5 mg/mL was added to each well and cells were left at 37° C. for incubation. 4 h later, the metabolic product was dissolved in a solution containing 10% SDS, 5% isopropanol and 0.01 mol/L HCl. Optical density at 565 nm was measured in an automated plate reader. The percentage of cell survival was determined by normalizing to solvent vehicle treated cells.
Inhibitors of the FA-BRCA pathway are known to sensitize tumor cells to the cytotoxic effects of ICL-[…] agents. Specifically, it is known that proteasome inhibitors block FANCD2 monoubiquitination, perhaps through depletion of intracellular pools of free ubiquitin, resulting in inhibition of HR repair (Chirnomas D, Taniguchi T, de la Vega M, et al. Chemosensitization to cisplatin by inhibitors of the Fanconi anemia/BRCA pathway. Mol Cancer Ther. 2006; 5:952-961). The ability of C527 to sensitize pretreated human cells to MMC or to other agents was tested.

T1 sequence (O94782 whole entry): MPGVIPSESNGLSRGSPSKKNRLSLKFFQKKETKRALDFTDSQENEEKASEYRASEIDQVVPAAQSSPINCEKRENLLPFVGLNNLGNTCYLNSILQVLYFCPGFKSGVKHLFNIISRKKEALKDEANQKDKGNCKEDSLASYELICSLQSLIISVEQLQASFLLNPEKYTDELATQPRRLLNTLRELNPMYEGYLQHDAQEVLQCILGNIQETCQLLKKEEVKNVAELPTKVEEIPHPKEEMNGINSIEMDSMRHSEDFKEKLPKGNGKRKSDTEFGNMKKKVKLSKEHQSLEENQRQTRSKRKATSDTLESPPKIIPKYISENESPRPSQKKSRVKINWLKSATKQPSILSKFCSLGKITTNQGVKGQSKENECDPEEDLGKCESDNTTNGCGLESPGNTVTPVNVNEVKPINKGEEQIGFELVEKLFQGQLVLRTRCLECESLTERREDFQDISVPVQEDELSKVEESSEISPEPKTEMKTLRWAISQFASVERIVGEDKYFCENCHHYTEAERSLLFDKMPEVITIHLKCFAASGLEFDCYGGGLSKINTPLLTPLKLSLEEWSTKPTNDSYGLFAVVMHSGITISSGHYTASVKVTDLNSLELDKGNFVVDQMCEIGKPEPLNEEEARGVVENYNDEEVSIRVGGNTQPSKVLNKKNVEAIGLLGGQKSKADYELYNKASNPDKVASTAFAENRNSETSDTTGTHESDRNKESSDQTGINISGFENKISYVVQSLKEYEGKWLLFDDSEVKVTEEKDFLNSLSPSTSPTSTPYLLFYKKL
T1 sequence (Q8TAF3 whole entry partner): as the sequence (Q8TAF3 whole entry partner, species assumed) above

**Q.** For `O=C1c2ccccc2C(=O)c2oc(-c3ccc(F)cc3)nc21` [Formula IV (527)], which “USP1 deubiquitinase activity (Ub-vinyl sulfone)” value (USP1; HeLa cells incubated eight hours, increasing concentrations, FIG. 3) is on record?
**A.** dose-dependent blockade

**Q.** And the “Ub-Vs conjugation of USP1 / deubiquitinase activity” value (USP1; HeLa cells, 50 μM inhibitor for 2, 4, or 6 hours, lysates with Ub-Vs 40 minutes, FIG. 2)?
**A.** potent inhibitor of deubiquitinase activity

**Q.** What about the “IC50 compared with USP1/UAF1” value (USP12/UAF1/WDR20 complex; FIG. 6D) of the same molecule?
**A.** slightly higher

**Q.** What about the “DUB activity of the USP12/UAF1/WDR20 complex” value (USP12/UAF1/WDR20 complex; in vitro, FIG. 6A) of the same molecule?
**A.** inhibited

**Q.** And the “Ub-VS labeling of endogenous DUBs (HA-labeling)” value [1]?
**A.** failed to inhibit

**Q.** And the “sensitization of cells to CPT” value (HeLa cells; then CPT 0.1 μM for 4 more days)?
**A.** sensitized cells

**Q.** What about the “sensitization of cells to MMC” value (HeLa cells; then MMC 0.25 μM for 4 more days) of the same molecule?
**A.** sensitized cells

**Q.** What about the “sensitization of cells to etoposide” value (HeLa cells; then etoposide for 4 more days) of the same molecule?
**A.** not to etoposide
